Data: US7833795B2, “Assessment of cardiovascular risk using isoprostane biomarkers and COX-2 selective inhibitors” (The Trustees of the University of Pennsylvania, priority 2004, dated 2010)

Experiments:
Format in all cases: in vivo, rat
Male Fisher 344 rats [1] = experiment: Plasma MDA by GC/NICI-MS; conditions: for MDA (by GC-M5): plasma
Procedure: (§1) Animals and treatment protocol: Male Fisher 344 rats (260-280 g) obtained from Charles River Laboratories (Raleigh, N.C.) were used in all experiments. The animals were housed three to a cage. Autoclaved hardwood bedding was used in solid-bottom polycarbonate cages with filter tops. Animal rooms were maintained at 20-25° C. with 35-70% relative humidity with alternating 12-hour light and dark cycles. The rats had free access to deionized, reverse-osmosis-treated water and received autoclaved NIH 31 rodent chow (Zeigler Bros., Gardners, Pa.) ad libitum. For all experiments, rats were fasted overnight and then administered intraperitoneal injections of carbon tetrachloride in canola oil. Control rats received an equal volume of canola oil. Fasting continued throughout the experiment. Rats were anesthetized with Nembutal (0.1 ml/100 g body weight) and 5 ml blood was removed from the dorsal aorta proximal to its bifurcation into the common iliac arteries.
Indomethacin pretreatment: The indomethacin regimen used has been previously shown to inhibit COX activity in rats by 90% (dose of 5 mg/kg s.c. 24 hours, 12 hours, and 2 hours prior to the injection of CCl4) (Jackson, 1989, J. Pharmacol. Exp. Ther. 250: 9-21). An additional booster dose was injected 8 hours after the last injection of CCl4 for the measurements performed 16 hours after treatment with CCl4.
(§2) Carbon tetrachloride (CCL4) treatment: Animals from each of the three dose groups (Control-canola oil, 120 mg/kg CCl4 i.p. and 1200 mg/kg CCl4 i.p.) were investigated at three time points (2, 7, and 16 hours after CCl4 injection). Indomethacin-pretreated rats were also investigated at the same three time points, and the meclofenamic acid-pretreated rats were investigated at one time point (7 hours). Each group consisted of five rats for each analysis, except the meclofenamic acid pretreatment group which consisted of six rats. Animal treatment, sample preparation, assessment of liver histology and serum enzyme activities are described elsewhere (Kadiiska et al., 2000, Free Radic. Biol. Med. 28: 838-845; Jackson, 1989, J. Pharmacol. Exp. Ther. 250: 9-21) and were carried out at NIEHS, Research Triangle Park, N.C.
(§3) Plasma sample preparation: Blood (5 ml) was drawn through single draw Vacutainer® needles (21 Gauge) into open Vacutainer® blood collection tubes containing heparin. The tubes were gently inverted 2-3 times for mixing and immediately placed on ice. Blood was centrifuged (2,000 rpm for 10 minutes at 4° C.) no more than 30 minutes after collection, and the plasma was collected, frozen on dry ice and stored at −70° C.
Plasma MDA concentrations were also measured by using gas chromatography/negative ion chemical ionization mass spectroscopy (GC/NICI-MS) as described by Yeo et al. (Yeo et al., 1994, Anal. Biochem. 220: 391-396). The stable isotope internal standard [^2H2] MDA and an antioxidant (2,6-tert-butyl-4-methylphenol) were added to the plasma samples. The samples were then incubated at room temperature in 6.6 mol H2SO4 for 10 minutes to hydrolyze the aldehydes from the proteins. Plasma MDA was converted to a stable pentafluorophenyl hydrazine derivative which was quantified by using the GC-MS in the negative chemical ionization mode. The assay was performed at Children's Hospital Oakland Research Institute, Oakland, Calif.

Male Fisher 344 rats [2] = experiment: Plasma protein carbonyls
Procedure: as §1, §2, §3
Several different assays for oxidation products of proteins were employed. The protein carbonyl content (Agarwal and Sohal, 1995, Mech. Ageing Develop. 85: 55-63), indicative of plasma protein oxidative damage, was measured according to the method of Levine et al. (Levine et al., 1994, Meth. Enzymol. 233: 346-357), based on derivatization of carbonyls with tritiated borohydride, as described in detail by Yan and Sohal (2000, Current Protocols Protein Science 144: 105-128). The isolated protein was counted in a Beckman scintillation counter and calculated using a standard curve. The measurements were performed at the University of Southern California, Los Angeles.

Male Fisher 344 rats [3] = experiment: Plasma methionine sulfoxidation
Procedure: as §1, §2, §3
Methionine sulfoxidation was measured according to Levine et al. (1996, Proc. Natl. Acad. Sci. USA 93: 15036-15040). In brief, serum samples were hydrolyzed with HCl. The methionine sulfoxide residue was converted to methionine, which represents the methionine sulfoxide level in the protein. The samples were analyzed on a Beckman Model 7300 amino acid analyzer. The methionine concentrations were measured at Weill Medical College of Cornell University, New York, N.Y., USA.

Male Fisher 344 rats [4] = experiment: Comet assay of blood leucocyte DNA; conditions: CCl4 120 and 1200 mg/kg; 2, 7, 16 h
Procedure: as §1
Carbon tetrachloride (CCL4) treatment: Animals from each of the three dose groups (Control-canola oil, 120 mg/kg CCl4 i.p. and 1200 mg/kg CCl4 i.p.) were investigated at three time points (2, 7, and 16 hours after CCl4 injection). Indomethacin-pretreated rats were also investigated at the same three time points, and the meclofenamic acid-pretreated rats were investigated at one time point (7 hours). […]

ClC(Cl)(Cl)Cl [CCl4, Carbon tetrachloride]
increase of plasma MDA (GC/NICI-MS) (Male Fisher 344 rats [1]; 7 hours after CCl4): 3 fold | MDA (by GC-M5) (Male Fisher 344 rats [1]; CCl4 120 mg/kg i.p., 2 h): 0.41 µM | MDA (by GC-M5) (Male Fisher 344 rats [1]; CCl4 120 mg/kg i.p., 7 h): 0.35 µM | MDA (by GC-M5) (Male Fisher 344 rats [1]; CCl4 120 mg/kg i.p., 16 h): 0.22 µM | MDA (by GC-M5) (Male Fisher 344 rats [1]; CCl4 1200 mg/kg i.p., 2 h): 1.35 µM | MDA (by GC-M5) (Male Fisher 344 rats [1]; CCl4 1200 mg/kg i.p., 7 h): 0.36 µM | MDA (by GC-M5) (Male Fisher 344 rats [1]; CCl4 1200 mg/kg i.p., 16 h): 0.23 µM | increase of plasma MDA compared to controls (GC/NICI-MS) (Male Fisher 344 rats [1]; higher dose of CCl4, 2 hours): 12 fold | Protein carbonyls (by HPLC) (Male Fisher 344 rats [2]; CCl4 120 mg/kg i.p., 2 h): 0.40 nmol/mg protein | Protein carbonyls (by HPLC) (Male Fisher 344 rats [2]; CCl4 120 mg/kg i.p., 7 h): 0.42 nmol/mg protein | Protein carbonyls (by HPLC) (Male Fisher 344 rats [2]; CCl4 120 mg/kg i.p., 16 h): 0.51 nmol/mg protein | Protein carbonyls (by HPLC) (Male Fisher 344 rats [2]; CCl4 1200 mg/kg i.p., 2 h): 0.53 nmol/mg protein | Protein carbonyls (by HPLC) (Male Fisher 344 rats [2]; CCl4 1200 mg/kg i.p., 7 h): 0.59 nmol/mg protein | Protein carbonyls (by HPLC) (Male Fisher 344 rats [2]; CCl4 1200 mg/kg i.p., 16 h): 0.48 nmol/mg protein | Methionine sulfoxide (Male Fisher 344 rats [3]; CCl4 120 mg/kg i.p., 2 h): 2.3 % of total methionine | Methionine sulfoxide (Male Fisher 344 rats [3]; CCl4 120 mg/kg i.p., 7 h): 1.7 % of total methionine | Methionine sulfoxide (Male Fisher 344 rats [3]; CCl4 120 mg/kg i.p., 16 h): 3.1 % of total methionine | Methionine sulfoxide (Male Fisher 344 rats [3]; CCl4 1200 mg/kg i.p., 2 h): 1.8 % of total methionine | Methionine sulfoxide (Male Fisher 344 rats [3]; CCl4 1200 mg/kg i.p., 7 h): 1.1 % of total methionine | Methionine sulfoxide (Male Fisher 344 rats [3]; CCl4 1200 mg/kg i.p., 16 h): 1.7 % of total methionine | Comet assay: % migrated DNA, tail length, tail moment (Male Fisher 344 rats [4]): statistically significant increase only at the low dose of CCl4 at 16 hours
